# Values quoted from earlier work, collected in US5981578A (priority 1997, dated 1999).
# Conditions: in just a few days
structure (smiles),measurement,value
"O=C1O[C@H]([C@@H](O)CO)C(O)=C1O [Ascorbic acid, ascorbic acid]",color development of aqueous preparations,"develop colors, progressively, from light yellow to orange dark brown"
